Patent publication US20210283064A1, “STABLE, BIOADHESIVE, AND DIFFUSION-RESTRICTIVE COACERVATE” (The Chinese University of Hong Kong, priority 2020, published 2021)

System: DSS-induced colitis
Test: Rat model of DSS-induced colitis
Format: in vivo, SD rats
Conditions: H&E-stained colon sections, oral gavage days 1, 3, 5, sacrifice day 7
Excerpt: SD rats weighing around 250 g were given 4.5% DSS in drinking water for 7 days to develop acute colitis. Clinical manifestations of the colitis, such as severe rectal bleeding, watery diarrhea, and colonic edema were observed after 7 days. […] Untreated colitic SD rats were used as the negative control. All SD rats were allowed unrestricted access to water and standard laboratory diet before and after oral gavage and sacrificed on day 7 for further evaluation of colon weight and length, histological severity, IBD-associated colonic myeloperoxidase (MPO)-activity, mRNA levels of tight junction-associated proteins (ZO-1 and occludin-1) and pro-inflammatory cytokines, such as interleukin IL-1β and tumor necrosis factor (TNF) in the distal colon.

dexamethasone sodium phosphate [Dex-P/PBS]
mean histopathology score: 1.917
